{"source": "patent US7097996B2", "about": "“Methods of screening test compounds using GADD34L, an eIF2α-specific phosphatase subunit” (New York University, priority 2002, dated 2006)", "key": {"[1]": {"test_system": "HT22 cells", "test": "HT22 cell survival (MTT) after toxic glutamate exposure", "format": "cell-based", "conditions": "HT22 cells preconditioned (70 μM 22P19 for 24 or 48 h, or siRNA transfection), then 5 mM or 10 mM glutamate for 18 hours", "procedure": "FIG. 6: Inhibition of endogenous GADD34L protects cells against oxidative toxicity. The bar graphs show percent survival of HT22 cells following exposure to toxic amounts of glutamate. HT22 cells were treated with 70 μM 22P19 for 24 or 48 h (top panel), or left untransfected (NTx), mock transfected, transfected with GADD34L siRNA, or transfected with control or CD2 siRNA (bottom panel), and then exposed to the indicated concentrations of glutamate for 18 hours.\nIn order to determine whether this preconditioning is protective against subsequent cell stress, cell survival rates of HT22 cells following toxic glutamate exposure were measured, where those HT22 cells had been preconditioned by 22P19- or RNAi-mediated inhibition of GADD34L (see FIG. 6).\nFor this assay, HT22 cells were either treated with 70 μM 22P19 for 24 or 48 h, or transfected with GADD34L siRNA or control CD2 siRNA, and then exposed to 0 mM, 5 mM, or 10 mM glutamate for 18 hours."}, "[2]": {"test_system": "CHOP::GFP reporter", "test": "CHOP::GFP reporter expression by FACS in CHOP::GFP CHO cells", "format": "cell-based, Chinese Hamster"}, "[3]": {"test_system": "CHOP protein and phosphorylated eIF2α in CHO cells", "format": "cell-based, Chinese Hamster"}, "[4]": {"conditions": "parental CHO cells, 1.75 μg/mL tunicamycin or 50 μM arsenite"}}, "note": "Like-named read-outs stand apart in the source and are kept apart here. d = 2'-deoxy (DNA); r = 2'-OH (RNA)"}
{"substance": "GADD34L siRNA: complementary double stranded RNA oligonucleotides (SEQ ID NO: 9 and 10) targeting GADD34L mRNA, purchased from Dharmacon (chain 1 GGGAUGGAUGCAGGUUCCATT; chain 2 UGGAACCUGCAUCCAUCCCTT; sugars from the 5' end r19 d2, backbone not given here)", "values": [{"measurement": "cell survival following glutamate treatment", "setting": "[1]", "value": "substantially improved cell survival"}, {"measurement": "CHOP::GFP expression in cells not subject to stress", "setting": "[2]; CHO CHOP::GFP cells harvested 16, 24 or 44 hours after transfection", "value": "activates CHOP::GFP expression"}]}
{"substance": "arsenite", "values": [{"measurement": "CHOP::GFP reporter expression", "setting": "[2]", "value": "substantially activated"}, {"measurement": "CHOP protein level", "setting": "[3]", "value": "strong induction of CHOP protein"}, {"measurement": "phosphorylated eIF2α level", "setting": "[3]", "value": "increase in phosphorylated eIF2α levels"}]}
{"substance": "tunicamycin", "values": [{"measurement": "CHOP::GFP reporter expression", "setting": "[2]; parental CHO cells, 8 hours, 1.75 μg/mL tunicamycin or 50 μM arsenite", "value": "substantially activated"}, {"measurement": "CHOP protein level", "setting": "[3]; [4]", "value": "strong induction of CHOP protein"}, {"measurement": "phosphorylated eIF2α level", "setting": "[3]; [4]", "value": "increase in phosphorylated eIF2α levels"}]}
